For two molecules, Ki results are on record in article PMC10202323, “4′-Deoxypyridoxine disrupts vitamin B6 homeostasis in Escherichia coli K12 through combined inhibition of cumulative B6 uptake and PLP-dependent enzyme activity” (Microbiology, 2023).

Assay type in all cases: biochemical
One assay concerns the target T1, PdxK (Escherichia coli, UniProt P40191).
T1 construct: recombinant, purified to homogeneity as previously reported
Briefly: spectrophotometric PLP formation at […] nm. The settings on record: read-out: inhibition constant.

The target of the next assay is T2, GlyA (Escherichia coli, UniProt P0A825).
T2 construct: recombinant, purified to homogeneity as previously reported; apoenzyme reconstituted with PLP
T2 sequence (P0A825 1-417): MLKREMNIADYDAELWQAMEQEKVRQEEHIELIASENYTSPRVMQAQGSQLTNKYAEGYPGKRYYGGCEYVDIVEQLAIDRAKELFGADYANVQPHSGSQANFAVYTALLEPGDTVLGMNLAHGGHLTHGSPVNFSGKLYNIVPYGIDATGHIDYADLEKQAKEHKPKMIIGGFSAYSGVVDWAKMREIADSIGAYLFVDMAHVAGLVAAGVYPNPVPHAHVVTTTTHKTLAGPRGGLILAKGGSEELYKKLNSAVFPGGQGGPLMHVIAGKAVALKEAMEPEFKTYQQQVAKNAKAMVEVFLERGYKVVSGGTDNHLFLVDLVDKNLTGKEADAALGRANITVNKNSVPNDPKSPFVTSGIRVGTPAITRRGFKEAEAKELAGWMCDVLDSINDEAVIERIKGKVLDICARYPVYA
Nature of the assay: spectrophotometric coupled SHMT assay. The settings on record: read-out: apparent inhibition constant.

The target of a further assay is T3, PdxH (Escherichia coli, UniProt P0AFI7).
T3 construct: recombinant, purified to homogeneity as previously reported
T3 sequence (P0AFI7 2-218): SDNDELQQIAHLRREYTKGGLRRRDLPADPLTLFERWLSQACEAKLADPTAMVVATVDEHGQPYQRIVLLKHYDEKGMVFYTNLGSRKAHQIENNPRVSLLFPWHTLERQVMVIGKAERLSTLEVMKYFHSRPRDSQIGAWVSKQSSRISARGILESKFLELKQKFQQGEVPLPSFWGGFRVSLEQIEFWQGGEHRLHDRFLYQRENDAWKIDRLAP
Briefly: spectrophotometric PLP formation at […] nm. The settings on record: read-out: apparent inhibition constant.

T1 sequence (P40191 whole entry): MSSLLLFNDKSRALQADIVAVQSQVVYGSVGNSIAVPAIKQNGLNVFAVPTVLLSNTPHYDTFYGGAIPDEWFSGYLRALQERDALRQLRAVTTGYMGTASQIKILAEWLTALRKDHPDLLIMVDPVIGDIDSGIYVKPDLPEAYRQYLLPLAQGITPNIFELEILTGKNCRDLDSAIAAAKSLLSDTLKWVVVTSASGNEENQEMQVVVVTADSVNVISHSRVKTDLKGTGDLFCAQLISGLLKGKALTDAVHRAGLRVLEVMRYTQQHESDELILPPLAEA

On to `Cc1ncc(CO)c(C)c1O` [4dPN], for which the Ki on PdxK was determined as 0.5 ± 0.6 µM.
In the case of `Cc1ncc(COP(=O)(O)O)c(C)c1O` [4dPNP], the Ki on GlyA worked out at 50 ± 30 µM; on PdxH, 530 ± 30 µM.
